Columns and labels:
GST tagged PIP4KtypeIIB = biological target: T1, GST tagged PIP4KtypeIIB (Homo sapiens, UniProt P78356); assay: Trans-FI P kinase assay PIP4K2B (PIP4KtypeIIB inhibition assay); assay type: biochemical; details: Table 4; compounds listed under IC50 range headings; 100 uM GTP, 5 nM PIP4KIIB; read-out: Trans-FI P kinase assays: PIP4K2B IC50
T1 construct: made in house; host or cells: E. coli
T1 sequence (P78356 1-416): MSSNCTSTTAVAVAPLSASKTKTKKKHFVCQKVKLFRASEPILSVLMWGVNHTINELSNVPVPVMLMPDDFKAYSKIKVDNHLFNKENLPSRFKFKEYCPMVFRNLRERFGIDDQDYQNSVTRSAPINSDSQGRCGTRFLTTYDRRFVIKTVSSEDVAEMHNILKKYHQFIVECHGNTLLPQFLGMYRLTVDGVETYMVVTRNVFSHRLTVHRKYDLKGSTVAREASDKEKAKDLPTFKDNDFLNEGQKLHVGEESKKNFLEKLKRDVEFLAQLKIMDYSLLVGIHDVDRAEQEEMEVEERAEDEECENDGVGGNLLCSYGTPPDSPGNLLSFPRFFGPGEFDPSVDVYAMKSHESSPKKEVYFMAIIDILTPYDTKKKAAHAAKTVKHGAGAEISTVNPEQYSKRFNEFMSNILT
In short: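 Transcreener FI fluorescence, converted to GDP by calibration, tracked product from 5 nM E. coli-expressed GST-PIP4KIIB acting on 80 uM PI5P (DOPE carrier) with 100 uM GTP. Compound (top 4.8 uM final, 5% DMSO) was preincubated 1 h at 27 C before the 2 h reaction; IC50 fitted from residual activity.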

[1] = biological target: T2, PIP4K2A (full length protein, SignalChem) (Homo sapiens, UniProt P48426); assay: Kinase Assay PIP4K2 A (Sprint); ADP-Glo biochemical assay; details: Table 2; compounds listed under IC50 range headings
T2 construct: 4 nM PIP4K2A (full length protein, SignalChem); purchased SignalChem
T2 sequence (P48426 1-406): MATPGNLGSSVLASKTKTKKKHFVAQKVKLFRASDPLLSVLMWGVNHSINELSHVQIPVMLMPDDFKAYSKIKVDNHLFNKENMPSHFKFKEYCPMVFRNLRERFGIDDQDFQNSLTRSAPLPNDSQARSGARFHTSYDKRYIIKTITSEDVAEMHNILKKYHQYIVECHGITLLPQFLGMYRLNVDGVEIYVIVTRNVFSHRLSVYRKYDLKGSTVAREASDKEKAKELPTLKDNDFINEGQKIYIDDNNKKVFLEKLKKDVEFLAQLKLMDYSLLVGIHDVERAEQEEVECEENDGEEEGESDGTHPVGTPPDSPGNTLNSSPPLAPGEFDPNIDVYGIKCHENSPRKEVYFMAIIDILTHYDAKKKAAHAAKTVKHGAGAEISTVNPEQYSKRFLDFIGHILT
In short: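 ADP-Glo luminescence detected ADP after a 1 h RT reaction started with 60 μM ATP solution. Before that, full-length PIP4K2A (4 nM in mix) with 100 μM PI(5)P diC8 was pre-incubated 15 min with compounds in MOPS buffer pH 7.2, 25 mM MgCl2, 0.005% Tween 20. IC50 derived from % inhibition relative to DMSO over 10 three-fold concentrations.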

GST tagged PIP4KtypeIIA = biological target: T3, GST tagged PIP4KtypeIIA (Homo sapiens, UniProt P48426); assay: ADP-glo kinase assay PIP4K 2A (PIP4KtypeIIA inhibition assay); assay type: biochemical; details: Table 3; compounds listed under IC50 range headings; 10 uM ATP, 0.5 nM PIP4KIIA
T3 construct: made in house; host or cells: E. coli
T3 sequence (P48426 1-406): T2 sequence (P48426 1-406)
In short: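 Read-out was ADP-Glo luminescence converted to μM ADP, with IC50 plotted as % of no-inhibitor activity against log concentration. Reactions contained 10 μM ATP, 80 μM PI5P with DOPE carrier, and 0.5 nM GST-tagged PIP4KIIA (E. coli-expressed) in pH 7.3 HEPES/MgCl2 buffer with 5% DMSO. Enzyme and compound (≤4.8 μM) were preincubated 1 h at 27 °C before the 1 h reaction.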

Row | Structure (SMILES) | IC50 (GST tagged PIP4KtypeIIB) [nM] | IC50 [1] [nM] | IC50 (GST tagged PIP4KtypeIIA) [nM]
1 | O=C1CCCN1c1ccc(-c2cncc(-c3ccnc4[nH]ccc34)c2)cc1 [Example 58, 1-(4-(5-(1H-pyrrolo[2,3-b]pyridin-4-yl)pyridin-3-yl)phenyl)pyrrolidin-2-one] | 100 to 1000 | 5 to 100 | 2500 to 5000
2 | CCOc1cnc2[nH]ccc2c1-c1cncc(-c2ccc(N3CCCC3=O)cc2)c1 [Example 59, 1-(4-(5-(5-ethoxy-1H-pyrrolo[2,3-b]pyridin-4-yl)pyridin-3-yl)phenyl)pyrrolidin-2-one] | 100 to 1000 | 100 to 1000 | 1000 to 2500
3 | CNC(=O)c1cnc2c(c1)c(-c1cncc(-c3ccc(N4CCCC4=O)cc3)c1)cn2C [Example 60, N,1-dimethyl-3-(5-(4-(2-oxopyrrolidin-1-yl)phenyl)pyridin-3-yl)-1H-pyrrolo[2,3-b]pyridine-5-carboxamide] | 100 to 1000 | 5 to 100 | 100 to 1000
4 | CN(C)C(=O)c1cnc2c(c1)c(-c1cncc(-c3ccc(N4CCCC4=O)cc3)c1)cn2C [Example 61, N,N,1-trimethyl-3-(5-(4-(2-oxopyrrolidin-1-yl)phenyl)pyridin-3-yl)-1H-pyrrolo[2,3-b]pyridine-5-carboxamide] | 100 to 1000 | 5 to 100 | 100 to 1000
5 | CC(O)c1cnc2c(c1)c(-c1cncc(-c3ccc(N4CCCC4=O)cc3)c1)cn2C (stereo not drawn) [Example 62, 1-(4-(5-(5-(1-hydroxyethyl)-1-methyl-1H-pyrrolo[2,3-b]pyridin-3-yl)pyridin-3-yl)phenyl)pyrrolidin-2-one] | 1000 to 2500 | 5 to 100 | 100 to 1000
6 | CS(=O)(=O)N1Cc2nccc(-c3cncc(-c4ccc(N5CCCC5=O)cc4)c3)c2C1 [Example 64, 1-(4-(5-(6-(methylsulfonyl)-6,7-dihydro-5H-pyrrolo[3,4-b]pyridin-4-yl)pyridin-3-yl)phenyl)pyrrolidin-2-one] | > 5000 | 100 to 1000 | > 5000
7 | COC(=O)N1Cc2nccc(-c3cncc(-c4ccc(N5CCCC5=O)cc4)c3)c2C1 [Example 65, methyl 4-(5-(4-(2-oxopyrrolidin-1-yl)phenyl)pyridin-3-yl)-5,7-dihydro-6H-pyrrolo[3,4-b]pyridine-6-carboxylate] | 1000 to 2500 | 100 to 1000 | 1000 to 2500
8 | O=C1CCCN1c1ccc(-c2cncc(-c3c(OC4CCCNC4)cnc4[nH]ccc34)c2)cc1 (stereo not drawn) [Example 66, 1-(4-(5-(5-(piperidin-3-yloxy)-1H-pyrrolo[2,3-b]pyridin-4-yl)pyridin-3-yl)phenyl)pyrrolidin-2-one] | > 5000 | < 5000 | > 5000
9 | O=C1CCCN1c1ccc(-c2cncc(-c3cn(Cc4ccccc4)c(=O)c4[nH]ncc34)c2)cc1 [Example 67, 6-benzyl-4-(5-(4-(2-oxopyrrolidin-1-yl)phenyl)pyridin-3-yl)-1,6-dihydro-7H-pyrazolo[3,4-c]pyridin-7-one] | 100 to 1000 | 5 to 100 | 100 to 1000
10 | CC(C)Cn1cc(-c2cncc(-c3ccc(N4CCCC4=O)cc3)c2)c2cn[nH]c2c1=O [Example 68, 6-isobutyl-4-(5-(4-(2-oxopyrrolidin-1-yl)phenyl)pyridin-3-yl)-1,6-dihydro-7H-pyrazolo[3,4-c]pyridin-7-one] | 10 to 100 | 5 to 100 | 10 to 100
11 | O=C1CCCN1c1ccc(-c2cncc(-c3cn(CC4CCOCC4)c(=O)c4[nH]ncc34)c2)cc1 [Example 69, 4-(5-(4-(2-oxopyrrolidin-1-yl)phenyl)pyridin-3-yl)-6-((tetrahydro-2H-pyran-4-yl)methyl)-1,6-dihydro-7H-pyrazolo[3,4-c]pyridin-7-one] | 100 to 1000 | 5 to 100 | 1000 to 2500
12 | Cn1ncc2c(-c3cncc(-c4ccc(N5CCCC5=O)cc4)c3)cn(CC3CCOCC3)c(=O)c21 [Example 70, 1-methyl-4-(5-(4-(2-oxopyrrolidin-1-yl)phenyl)pyridin-3-yl)-6-((tetrahydro-2H-pyran-4-yl)methyl)-1,6-dihydro-7H-pyrazolo[3,4-c]pyridin-7-one] | 100 to 1000 | 5 to 100 | 100 to 1000
13 | CNC(=O)c1cnc2[nH]cc(-c3cncc(-c4ccc(N5CCCC5=O)cc4)c3)c2c1 [Example 71, N-methyl-3-(5-(4-(2-oxopyrrolidin-1-yl)phenyl)pyridin-3-yl)-1H-pyrrolo[2,3-b]pyridine-5-carboxamide] | 10 to 100 | 5 to 100 | 100 to 1000
14 | CN(C)C(=O)c1cnc2[nH]cc(-c3cncc(-c4ccc(N5CCCC5=O)cc4)c3)c2c1 [Example 72, N,N-dimethyl-3-(5-(4-(2-oxopyrrolidin-1-yl)phenyl)pyridin-3-yl)-1H-pyrrolo[2,3-b]pyridine-5-carboxamide] | 100 to 1000 | 5 to 100 | 100 to 1000
15 | O=C1CCCN1c1ccc(-c2cncc(-c3c[nH]c(=O)c4[nH]ncc34)c2)cc1 [Example 74, 4-(5-(4-(2-oxopyrrolidin-1-yl)phenyl)pyridin-3-yl)-1,6-dihydro-7H-pyrazolo[3,4-c]pyridin-7-one] | 100 to 1000 | 5 to 100 | 100 to 1000
16 | CN1C(=O)Cc2c(-c3cncc(-c4ccc(N5CCCC5=O)cc4)c3)ccnc21 [Example 76, 1-methyl-4-(5-(4-(2-oxopyrrolidin-1-yl)phenyl)pyridin-3-yl)-1,3-dihydro-2H-pyrrolo[2,3-b]pyridin-2-one] | 1000 to 2500 | 100 to 1000 | 2500 to 5000
17 | Cn1cc(-c2cncc(-c3ccc(N4CCCC4=O)cc3)c2)c2cc(N3CCCC3=O)cnc21 [Example 77, 1-(1-methyl-3-(5-(4-(2-oxopyrrolidin-1-yl)phenyl)pyridin-3-yl)-1H-pyrrolo[2,3-b]pyridin-5-yl)pyrrolidin-2-one] | 100 to 1000 | 5 to 100 | 100 to 1000
18 | O=C1NCc2c(-c3cncc(-c4ccc(N5CCCC5=O)cc4)c3)ccnc21 [Example 78, 4-[5-[4-(2-Oxopyrrolidin-1-yl)phenyl]-3-pyridyl]-5,6-dihydropyrrolo[3,4-b]pyridin-7-one] | 100 to 1000 | 5 to 100 | 100 to 1000
19 | O=C(NCC1CC1)c1cc2c(-c3cncc(-c4ccc(N5CCCC5=O)cc4)c3)ccnc2o1 [Example 79, N-(cyclopropylmethyl)-4-(5-(4-(2-oxopyrrolidin-1-yl)phenyl)pyridin-3-yl)furo[2,3-b]pyridine-2-carboxamide] | 10 to 100 | 5 to 100 | 10 to 100
20 | COCCNC(=O)c1cc2c(-c3cncc(-c4ccc(N5CCCC5=O)cc4)c3)ccnc2o1 [Example 80, N-(2-methoxyethyl)-4-(5-(4-(2-oxopyrrolidin-1-yl)phenyl)pyridin-3-yl)furo[2,3-b]pyridine-2-carboxamide] | 10 to 100 | 5 to 100 | 100 to 1000
21 | Nc1ncc(-c2ccncc2)cc1-c1ccc(N2CCCC2=O)cc1 [Example 84, 1-(4-(6-amino-[3,4′-bipyridin]-5-yl)phenyl)pyrrolidin-2-one] | 100 to 1000 | 100 to 1000 | 100 to 1000
22 | CNC(=O)c1cc2c(-c3cnc(N)c(-c4ccc(N5CCCC5=O)cc4)c3)ccnc2o1 [Example 85, 4-(6-amino-5-(4-(2-oxopyrrolidin-1-yl)phenyl)pyridin-3-yl)-N-methylfuro[2,3-b]pyridine-2-carboxamide] | 1 to 10 | 1 to 5 | 10 to 100
23 | Cn1cc(-c2cnc(N)c(-c3ccc(N4CCCC4=O)cc3)c2)c2cccnc21 [Example 87, 1-(4-(2-amino-5-(1-methyl-1H-pyrrolo[2,3-b]pyridin-3-yl)pyridin-3-yl)phenyl)pyrrolidin-2-one] | 100 to 1000 | 5 to 100 | 100 to 1000

Reference: patent US11919902B2, “Aryl-bipyridine amine derivatives as phosphatidylinositol phosphate kinase inhibitors” (HiberCell, Inc., priority 2017, dated 2024)
